# Data from the supplement of paper PMC10307832.
# Key:
# Assay in all cases: relative viability (nuclei count vs DMSO), 5 days (fraction); higher = more cells survive
# Pemetrexed + Olaparib = compound: Nc1nc2[nH]cc(CCc3ccc(C(=O)N[C@@H](CCC(=O)O)C(=O)O)cc3)c2c(=O)[nH]1 [Pemetrexed] + O=C(c1cc(Cc2n[nH]c(=O)c3ccccc23)ccc1F)N1CCN(C(=O)C2CC2)CC1 [Olaparib] (partner 8 µM)
# Procedure, shortened: (§1)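 Five library-drug doses in √10 steps were combined with a fixed anchor-drug dose, or a single drug was given alone, by pin tool to lung cancer cell lines in 1536-well plates the day after seeding. Nuclei were stained and counted after 5 days. Relative viability is the nuclei count in treated wells over that in vehicle wells, taken as the median of duplicate plates.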
# Pemetrexed + Linsitinib = compound: Nc1nc2[nH]cc(CCc3ccc(C(=O)N[C@@H](CCC(=O)O)C(=O)O)cc3)c2c(=O)[nH]1 [Pemetrexed] + C[C@]1(O)C[C@@H](c2nc(-c3ccc4ccc(-c5ccccc5)nc4c3)c3c(N)nccn32)C1 [Linsitinib] (partner 1 µM)
# Procedure, shortened: as §1
# Pemetrexed + Lapatinib = compound: Nc1nc2[nH]cc(CCc3ccc(C(=O)N[C@@H](CCC(=O)O)C(=O)O)cc3)c2c(=O)[nH]1 [Pemetrexed] + CS(=O)(=O)CCNCc1ccc(-c2ccc3ncnc(Nc4ccc(OCc5cccc(F)c5)c(Cl)c4)c3c2)o1 [Lapatinib] (partner 2 µM)
# Procedure, shortened: as §1
# Pemetrexed + Luminespib = compound: Nc1nc2[nH]cc(CCc3ccc(C(=O)N[C@@H](CCC(=O)O)C(=O)O)cc3)c2c(=O)[nH]1 [Pemetrexed] + CCNC(=O)c1noc(-c2cc(C(C)C)c(O)cc2O)c1-c1ccc(CN2CCOCC2)cc1 [Luminespib] (partner 0.01 µM)
# Procedure, shortened: as §1
Cell Line,relative viability (Pemetrexed + Olaparib; first compound 0.006325 µM),relative viability (Pemetrexed + Olaparib; first compound 0.02 µM),relative viability (Pemetrexed + Olaparib; first compound 0.06325 µM),relative viability (Pemetrexed + Olaparib; first compound 0.2 µM),relative viability (Pemetrexed + Linsitinib; first compound 0.002 µM),relative viability (Pemetrexed + Linsitinib; first compound 0.006325 µM),relative viability (Pemetrexed + Linsitinib; first compound 0.02 µM),relative viability (Pemetrexed + Linsitinib; first compound 0.06325 µM),relative viability (Pemetrexed + Linsitinib; first compound 0.2 µM),relative viability (Pemetrexed + Lapatinib; first compound 0.002 µM),relative viability (Pemetrexed + Lapatinib; first compound 0.006325 µM),relative viability (Pemetrexed + Lapatinib; first compound 0.02 µM),relative viability (Pemetrexed + Lapatinib; first compound 0.06325 µM),relative viability (Pemetrexed + Lapatinib; first compound 0.2 µM),relative viability (Pemetrexed + Luminespib; first compound 0.002 µM),relative viability (Pemetrexed + Luminespib; first compound 0.006325 µM),relative viability (Pemetrexed + Luminespib; first compound 0.02 µM),relative viability (Pemetrexed + Luminespib; first compound 0.06325 µM),relative viability (Pemetrexed + Luminespib; first compound 0.2 µM),relative viability (Pemetrexed + Olaparib; first compound 0.002 µM)
HOP-62,0.443,0.55,0.391,0.387,0.903,0.788,0.959,0.671,0.922,0.885,1.07,0.898,1.14,0.982,0.85,0.936,0.851,0.814,0.932,–
LC-2-ad,0.711,0.683,0.612,0.312,0.811,0.83,0.819,0.24,0.188,0.747,1.01,1.01,0.27,0.179,1.09,0.989,0.709,0.313,0.303,0.712
SW 900,0.797,1.07,0.621,0.494,–,–,–,–,–,–,–,–,–,–,0.198,0.147,0.18,0.181,0.158,0.871
NCI-H322M,0.763,0.752,0.84,0.736,0.967,0.778,1.06,0.938,0.809,0.642,0.531,0.657,0.551,0.618,0.987,0.767,0.853,0.84,0.752,0.682
SK-LU-1,0.5,0.58,0.51,0.455,1.01,1.03,1.15,0.951,0.968,0.772,0.853,0.96,0.804,0.695,0.195,0.2,0.187,0.2,0.21,0.405
NCI-H1734,0.615,0.741,0.619,0.601,0.909,0.818,0.971,0.861,0.718,0.724,0.995,1.13,1.01,0.525,0.208,0.192,0.219,0.206,0.218,0.576
HCC-44,0.952,0.987,0.964,0.909,0.598,0.625,0.73,0.665,0.536,0.928,1,1.03,1.02,0.874,1.08,1.03,1.09,0.918,0.666,0.97
NCI-H1703,0.379,0.671,0.381,0.385,0.889,0.943,1.08,0.64,0.731,1.02,0.865,1.59,0.9,0.976,–,–,–,–,–,0.485
NCI-H2170,0.62,0.652,0.633,0.555,–,–,–,–,–,0.302,0.282,0.268,0.293,0.297,0.684,0.861,0.709,0.749,0.583,0.573
NCI-H1395,0.421,0.5,0.41,0.426,0.99,0.975,1.1,1.1,0.998,0.875,1.02,1.11,0.922,0.883,0.8,0.718,0.678,0.528,0.758,0.427
NCI-H1355,0.709,0.731,0.754,0.691,0.8,0.801,0.824,0.881,0.72,0.783,1.05,0.991,1.04,0.975,0.737,0.662,0.656,0.693,0.715,0.676
NCI-H1650,0.93,0.887,0.758,0.345,–,–,–,–,–,0.804,0.699,0.8,0.505,0.349,0.192,0.18,0.199,0.178,0.183,0.676
IA-LM,0.725,0.926,0.889,0.852,0.484,0.488,0.784,0.702,0.644,0.719,0.869,1.03,0.827,0.636,–,–,–,–,–,0.74
NCI-H1666,0.785,0.787,0.728,0.694,0.71,0.774,0.829,0.73,0.615,0.678,0.647,0.566,0.575,0.394,1,0.942,1.01,1.01,0.839,0.765
HCC-78,0.792,0.662,0.29,0.233,–,0.384,0.482,0.26,0.18,–,0.796,0.58,0.223,0.153,–,–,–,–,–,–
H3255,0.602,0.586,0.573,0.519,0.83,0.976,1.04,0.946,0.768,–,0.15,0.278,0.245,0.296,0.714,0.799,0.93,0.852,0.844,0.563
NCI-H23,0.335,0.331,0.32,0.319,0.602,0.513,0.607,0.549,0.589,0.968,0.882,1.26,1.04,0.919,0.216,0.202,0.22,0.201,0.211,0.318
NCI-H1944,0.368,0.395,0.393,0.402,1.09,1.02,1.17,1.19,1.21,0.866,0.766,0.846,0.834,0.839,–,0.752,0.72,0.734,0.69,0.317
NCI-H1651,0.191,0.205,0.193,0.184,0.995,0.977,0.987,0.903,0.895,0.9,0.767,0.819,0.85,0.725,0.845,0.792,0.965,0.983,0.732,0.175
EBC-1,0.714,0.723,0.665,0.545,0.864,0.73,0.894,0.919,0.605,0.22,0.193,0.205,0.214,0.192,–,–,–,–,–,0.684

Cell Line,relative viability (Pemetrexed + Olaparib; first compound 0.006325 µM),relative viability (Pemetrexed + Olaparib; first compound 0.02 µM),relative viability (Pemetrexed + Olaparib; first compound 0.06325 µM),relative viability (Pemetrexed + Olaparib; first compound 0.2 µM),relative viability (Pemetrexed + Linsitinib; first compound 0.002 µM),relative viability (Pemetrexed + Linsitinib; first compound 0.006325 µM),relative viability (Pemetrexed + Linsitinib; first compound 0.02 µM),relative viability (Pemetrexed + Linsitinib; first compound 0.06325 µM),relative viability (Pemetrexed + Linsitinib; first compound 0.2 µM),relative viability (Pemetrexed + Lapatinib; first compound 0.002 µM),relative viability (Pemetrexed + Lapatinib; first compound 0.006325 µM),relative viability (Pemetrexed + Lapatinib; first compound 0.02 µM),relative viability (Pemetrexed + Lapatinib; first compound 0.06325 µM),relative viability (Pemetrexed + Lapatinib; first compound 0.2 µM),relative viability (Pemetrexed + Luminespib; first compound 0.002 µM),relative viability (Pemetrexed + Luminespib; first compound 0.006325 µM),relative viability (Pemetrexed + Luminespib; first compound 0.02 µM),relative viability (Pemetrexed + Luminespib; first compound 0.06325 µM),relative viability (Pemetrexed + Luminespib; first compound 0.2 µM),relative viability (Pemetrexed + Olaparib; first compound 0.002 µM)
COR-L 105,0.74,0.746,0.738,0.662,0.804,0.872,1.05,0.709,1.03,0.404,0.389,0.375,0.406,0.315,0.77,0.834,0.673,0.862,0.729,0.706
RERF-LC-KJ,0.843,0.973,0.865,0.612,0.856,0.845,0.926,0.912,0.752,0.739,0.835,0.842,0.892,0.692,1.39,1.28,1.38,1.21,0.831,0.956
NCI-H1793,0.712,0.912,0.919,0.774,0.862,0.722,0.676,0.841,0.779,0.543,0.769,0.619,0.704,0.619,0.397,0.201,0.152,0.118,0.237,0.868
CAL-12T,0.616,0.804,0.694,0.692,0.776,0.744,0.932,0.996,0.782,0.549,0.678,0.615,0.774,0.59,0.307,0.352,0.38,0.363,0.557,0.706
NCI-H1993,1.02,1.21,1.06,0.798,0.824,0.697,0.815,0.698,0.692,0.863,0.887,0.869,0.754,0.665,0.432,0.623,0.868,0.913,0.41,0.885
LXF-289,1.04,1.1,1.03,0.976,0.917,0.994,0.976,0.955,0.931,0.822,0.862,0.949,0.899,0.874,0.687,0.648,0.731,0.639,0.651,1.07
NCI-H1792,0.405,0.397,0.497,0.46,0.499,0.532,0.57,0.469,0.519,0.829,0.895,0.861,0.875,0.862,0.578,0.51,0.539,0.476,0.45,0.44
A549,0.292,0.379,0.338,0.343,0.568,0.569,0.645,0.57,0.709,0.841,0.947,1.13,0.987,0.973,–,–,–,–,–,0.29
ChaGo-K-1,0.423,0.464,0.383,0.259,–,–,–,–,–,–,–,–,–,–,0.582,0.577,0.608,0.47,0.239,0.483
NCI-H441,0.534,0.56,0.567,0.252,0.553,0.572,0.454,0.414,0.269,–,–,–,–,–,0.35,0.328,0.33,0.393,0.328,0.458
NCI-H2342,0.407,0.467,0.452,0.424,–,–,–,–,–,–,–,–,–,–,0.678,0.8,0.676,0.799,0.788,0.409
NCI-H1648,0.926,0.768,0.732,0.766,–,–,–,–,–,–,–,–,–,–,–,–,–,–,–,0.953
NCI-H1563,–,–,–,–,1.1,1.13,1.17,1.18,1.17,0.83,0.804,0.921,0.971,0.986,0.496,0.505,0.562,0.481,0.569,–
NCI-H522,0.549,0.572,0.511,0.703,–,–,–,–,–,–,–,–,–,–,1.21,1,1.29,1.12,1.24,0.484
NCI-H1623,–,–,–,–,–,–,–,–,–,–,–,–,–,–,0.628,0.325,0.503,0.443,0.613,–
NCI-H1299,0.913,0.949,0.956,0.983,0.926,0.929,1.07,0.992,0.471,0.926,0.92,0.964,0.955,0.918,–,–,–,–,–,0.967
HCC-366,0.432,0.385,0.36,0.332,0.675,0.513,0.677,0.707,0.567,1.01,1.02,1.16,0.993,0.381,–,–,–,–,–,0.345
LCLC-103H,0.707,0.791,0.78,0.679,1.07,1.03,1.14,1.16,0.992,–,–,–,–,–,0.963,0.942,1.02,0.796,0.94,0.732
Calu-6,0.525,0.646,0.524,0.578,–,0.964,1.08,0.977,0.72,1.09,1.02,1.18,0.999,0.84,–,–,–,–,–,–
